According to article PMC3184957, “Improving a Natural CaMKII Inhibitor by Random and Rational Design” (PLoS ONE, 2011):
pIC50: −log10 of the molar value. Entries after “also recorded” stand apart in the source; their conditions may differ. Read-outs that look alike come from different tables or passages of the source. Ends that are not written are not given here.

Columns and labels:
CaMKIIα = target: T1, CaMKIIα (Rattus norvegicus, UniProt P11275); assay: CaMKII activity assay, phosphorylation of syntide 2; format: biochemical; settings: for IC50: class estimated from syntide 2 phosphorylation at 0.3 and 0.1 µM peptide, Ala scan peptides not N-acetylated / C-amidated, read-out: IC50 [μM] (Ala scan of CN19, Fig. 2); for CaMKII activity remaining at 5 nM peptide: 5 nM peptide (Figs. S6, 7B); for effect of rational mutation in CN19a2v / CN19o on CaMKII inhibition (Fig. 6): compared with CN19a2v or CN19o, Fig. 6C CaMKII 0.5 nM; for fold greater potency of CaMKII inhibition compared to CN19: ratio of IC50 values; for effect of individual mutation of CN19 on potency of CaMKII inhibition: compared with CN19, some substitutions tested in CN19a2 or a3; for fold reduction of potency of CaMKII inhibition compared to CN19 (Ala scan): Ala substitution in CN19, Fig. 2
T1 construct: made in house; host or cells: baculovirus/Sf9 (CaMKII); bacteria (CaM)
Text: CaM and CaMKII was purified after bacterial or baculovirus/Sf9 cell expression as described, [47]. Other kinases were purchased (PKA and PKC from PhosphoSolutions; others from SignalChem). […] All CN peptides were N-terminally acetylated and C-terminally amidated, except for the peptides used for the initial Ala scan. Substrate peptides were purchase from Genescript or as indicated. Chemicals were obtained from Sigma and Perkin Elmer. […] For all kinase activity assays, reactions were stopped by spotting onto P81 cation exchange chromatography paper (Whatman) squares. After extensive washes in water, phosphorylation of the substrate peptide bound to the P81 paper was measured by the Cherenkov method.

CaMKIα = target: T2, CaMKIα (Mus musculus, UniProt Q91YS8); assay: CaMKI activity assay; format: biochemical; settings: for pIC50: 2.5 nM CaMKIα, 3 min, syntide 2, curve fit with Hill coefficient set as 1 (Fig. S5), read-out: IC50 of CaMKI inhibition; for effect on CaMKI activity at 5 µM peptide: 5 µM peptide (Figs. 5, 7B)
T2 construct: purchased SignalChem
Method: (§1) For all kinase activity assays, reactions were stopped by spotting onto P81 cation exchange chromatography paper (Whatman) squares. After extensive washes in water, phosphorylation of the substrate peptide bound to the P81 paper was measured by the Cherenkov method.
(§2) Reactions were performed essentially as described for CaMKII. However, for AMPK, 100 µM AMP was added to the reaction. For AMPK, PKC, and PKA, the reaction mix contained 1 mM EGTA instead of CaCl2 and CaM. Prior to activity assays, CaMKI (12.5 nM) and CaMKIV (80 nM) were phosphorylated by CaMKKα (1.25–4 nM) for 5 min at 30°C in Ca^2+/CaM containing buffer. Additionally, kinase amount, reaction time, and the substrate (obtained from different companies as indicated) was varied as follows: 2.5 nM CaMKIα, 3 min, syntide 2 (Genescript); 5 nM CaMKIV, 10 min, CaMK2g 345–358 peptide (Anaspec); 2.5 nM DAPK1 1–363, 3 min, MLC-derived peptide (Anaspec); 5 nM AMPK-α2β1γ1, 10 min, SAMStide (SignalChem); 5 nM PKA, 10 min, Kemptide (Genescript); 2 nM PKC, 10 min, MARCKS peptide (Anaspec). PKA and PKC were purified from bovine heart or rat brain, respectively. […] Other kinases were recombinant protein from mouse (CaMKI) or human (CaMKK, CaMKIV, DAPK1, AMPK), of the isoform and/or subunit composition indicated above.

CaMKIV = target: T3, CaMKIV (Homo sapiens, UniProt Q16566); assay: CaMKIV activity assay; format: biochemical; settings: 5 µM peptide; 5 nM CaMKIV, 10 min, CaMK2g 345–358 peptide
T3 construct: purchased SignalChem
Method: as §1, §2

DAPK1 1–363 = target: T4, DAPK1 1–363 (Homo sapiens, UniProt P53355); assay: DAPK1 activity assay; format: biochemical; settings: 5 µM peptide; 2.5 nM DAPK1 1–363, 3 min, MLC-derived peptide
T4 construct: 2.5 nM DAPK1 1–363, 3 min, MLC-derived peptide (Anaspec); purchased SignalChem
Method: as §1, §2

AMPK-α2β1γ1 = target: T5, AMPK-α2β1γ1 (Homo sapiens, UniProt P54619+P54646+Q9Y478); assay: AMPK activity assay; format: biochemical; settings: 5 µM peptide; 5 nM AMPK, 10 min, SAMStide, 100 µM AMP
T5 construct: purchased SignalChem
Method: as §1, §2

PKA = target: T6, PKA (Bos taurus, UniProt P00517); assay: PKA activity assay; format: biochemical, bovine; settings: 5 µM peptide; 5 nM PKA catalytic subunits, 10 min, Kemptide
T6 construct: PKA and PKC were purified from bovine heart or rat brain, respectively; purchased PhosphoSolutions; host or cells: bovine heart
Method: as §1, §2

PKC = PKC activity assay; format: biochemical, rat; settings: 5 µM peptide; 2 nM PKC (PKM fragment), 10 min, MARCKS peptide
Method: as §1, §2

CaMKII = target: T7, CaMKII (Rattus norvegicus, UniProt P11275); assay: CaMKII activity assay, T-site binding substrate AC3; format: biochemical; settings: S- and T-site binding substrate AC3, competitive inhibition (Fig. S1); read-out: IC50 for inhibition of CaMKII activity towards AC3
T7 construct: made in house; host or cells: baculovirus/Sf9 (CaMKII); bacteria (CaM)
Method: Standard reactions (1 min at 30°C) were started by adding CaMKIIα (2.5 nM subunits, unless stated otherwise) to a mix of 50 mM PIPES pH 7.2, 0.1% BSA, 1 µM CaM, 1 mM CaCl2, 10 mM MgCl2, 100 µM [γ-^32P]ATP (∼1 Ci/mmole), 75 µM substrate peptide (syntide 2, or as indicated), and inhibitor peptide as indicated. Reactions with 0.1 nM CaMKII were done for 10 min.
as §1
Systematic further truncation of CN21 defined the minimal inhibitory region, CN19 (Fig. 1B). […] Thus, the peptide C-terminally truncated by 2 amino acids (now termed CN19) contains the minimal inhibitory region with full inhibitory potency. Phosphorylation of syntide 2 by CaMKII was inhibited by CN21, CN20 and CN19 with an IC50 of ∼100 nM (Fig. 1C). Syntide 2 is a “regular” S-site binding CaMKII substrate, and CN peptides inhibit its phosphorylation in a non-competitive manner. We additionally tested AC3, an S- and T-site binding substrate, as this T-site binding results in competitive inhibition by CN peptides, which also bind to the T-site. […]

[1] = values compared from Figs. 1, 4 and 7, read-out: CaMKII IC50 (Fig. S5 table and legend)
[2] = in vitro [γ-32P]ATP assay, substrate syntide 2, 30°C, approximate values (Figs. 1C, 4B, 6), read-out: IC50 of inhibition of CaMKII phosphorylation of syntide 2

T5 sequence (P54646 whole entry): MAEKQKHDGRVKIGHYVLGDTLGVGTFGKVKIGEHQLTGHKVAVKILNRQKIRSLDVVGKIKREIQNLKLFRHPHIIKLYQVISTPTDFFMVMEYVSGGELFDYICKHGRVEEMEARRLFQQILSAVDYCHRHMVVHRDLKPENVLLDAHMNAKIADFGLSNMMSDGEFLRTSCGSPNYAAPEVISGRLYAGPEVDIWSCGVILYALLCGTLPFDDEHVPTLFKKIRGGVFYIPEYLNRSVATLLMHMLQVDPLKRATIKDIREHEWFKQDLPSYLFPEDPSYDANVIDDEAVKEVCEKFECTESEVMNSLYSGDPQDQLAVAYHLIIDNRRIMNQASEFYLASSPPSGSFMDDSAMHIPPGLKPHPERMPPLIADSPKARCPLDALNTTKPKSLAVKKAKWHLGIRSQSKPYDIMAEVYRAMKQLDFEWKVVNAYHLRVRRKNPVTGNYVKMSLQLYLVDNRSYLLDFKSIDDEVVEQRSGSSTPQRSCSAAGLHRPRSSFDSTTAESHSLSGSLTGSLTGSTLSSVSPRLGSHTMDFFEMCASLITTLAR
T5 sequence (Q9Y478 whole entry partner): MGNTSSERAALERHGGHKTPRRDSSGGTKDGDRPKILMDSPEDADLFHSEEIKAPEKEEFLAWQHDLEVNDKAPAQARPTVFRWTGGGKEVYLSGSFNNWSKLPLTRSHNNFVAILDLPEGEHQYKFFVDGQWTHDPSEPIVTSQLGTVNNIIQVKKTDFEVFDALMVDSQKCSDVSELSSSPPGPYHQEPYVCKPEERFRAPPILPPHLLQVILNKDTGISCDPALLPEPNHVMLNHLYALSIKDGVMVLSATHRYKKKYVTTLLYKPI
T5 sequence (P54619 whole entry partner): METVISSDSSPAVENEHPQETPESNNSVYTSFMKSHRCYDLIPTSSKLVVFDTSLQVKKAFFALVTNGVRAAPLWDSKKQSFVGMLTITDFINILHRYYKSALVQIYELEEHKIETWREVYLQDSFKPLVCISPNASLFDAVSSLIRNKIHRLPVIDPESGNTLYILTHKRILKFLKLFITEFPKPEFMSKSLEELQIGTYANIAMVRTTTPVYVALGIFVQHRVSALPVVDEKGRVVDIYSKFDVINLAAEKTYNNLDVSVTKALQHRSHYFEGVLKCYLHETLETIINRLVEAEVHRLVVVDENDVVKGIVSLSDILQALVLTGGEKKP

ARPPKLGQIGRSKRVVIED [K1A]
IC50 (CaMKIIα): < 0.3 µM

Ac-KRAPKLGQIGRQKAVDIED-NH2 [CN19o]
CaMKII activity remaining at 5 nM peptide (CaMKIIα): blocked CaMKII activity almost completely | pIC50 (CaMKIIα; CaMKII reduced to 0.1 nM, 10 min reaction, IC50 dependent on CaMKII concentration (tight binding inhibitor), read-out: IC50 for CaMKII inhibition by CN19o (Fig. 7A)): > 9.40 | effect of rational mutation in CN19a2v / CN19o on CaMKII inhibition (Fig. 6) (CaMKIIα): increased potency even further | fold greater potency of CaMKII inhibition compared to CN19 (CaMKIIα): > 250 fold | pIC50 (CaMKIIα; [1]): 9.40 | fold increase of selectivity for CaMKII vs CaMKI compared to CN19 (CaMKIα): > 250 fold | pIC50 (CaMKIα): 4.42 | effect on CaMKI activity at 5 µM peptide (CaMKIα): did not significantly affect | CaMKII selectivity (Fig. S5 table) (CaMKIα; ratio CaMKI IC50 / CaMKII IC50): > 100,000 x | selectivity for CaMKII vs CaMKI (CaMKIα; ratio CaMKI IC50 / CaMKII IC50): ~100,000 fold | effect on CaMKIV activity at 5 µM (CaMKIV): did not significantly affect | effect on DAPK1 activity at 5 µM (DAPK1 1–363): did not significantly affect | effect on AMPK activity at 5 µM (AMPK-α2β1γ1): did not significantly affect | effect on PKA activity at 5 µM (PKA): did not significantly affect | effect on PKC activity at 5 µM (PKC): did not significantly affect

Ac-KRAPKLGQIGRQKAVVIED-NH2 [CN19a2v V12Q]
effect of rational mutation in CN19a2v / CN19o on CaMKII inhibition (Fig. 6) (CaMKIIα): significantly increased potency | pIC50 (CaMKIIα; [2]): ~9.00

Ac-KRAPKLGQIGRVKAVDIED-NH2 [CN19a2v V16D]
effect of rational mutation in CN19a2v / CN19o on CaMKII inhibition (Fig. 6) (CaMKIIα): significantly increased potency | pIC50 (CaMKIIα; [2]): ~9.00

Ac-KRAPKLGQIGRVKAVVIED-NH2 [CN19a2v]
CaMKII activity remaining at 5 nM peptide (CaMKIIα): ~75% | potency of CN19 combination mutants (Fig. 4) (CaMKIIα; 20 nM peptide, syntide 2): without loss of its potency; also recorded: significantly stronger compared to CN19a3 with additional S12V mutation (CN19a3v) | effect of further mutation in CN19a2 on CaMKII inhibition (Figs. S3B, S4B) (CaMKIIα; compared with CN19a2): retained potency of CaMKII inhibition | fold greater potency of CaMKII inhibition compared to CN19 (CaMKIIα): ~5 fold | pIC50 (CaMKIIα; [1]): 7.70 | fold greater potency of CaMKI inhibition compared to CN19 (CaMKIα): ~2 fold | fold increase of selectivity for CaMKII vs CaMKI compared to CN19 (CaMKIα): ~2.5 fold | pIC50 (CaMKIα): 4.74 | effect on CaMKI activity at 5 µM peptide (CaMKIα): did not inhibit | CaMKI activity at 20 µM peptide (CaMKIα; 20 µM peptide, remaining activity (Fig. 5B)): ~60% | selectivity for CaMKII vs CaMKI (CaMKIα; ratio CaMKI IC50 / CaMKII IC50): ~900 fold

Ac-KRPPKLGQIGRSKRVVIED-NH2 [CN19]
pIC50 (CaMKIIα; [1]): 7.00 | pIC50 (CaMKII): ~6.00 | pIC50 (CaMKIα): 4.44 | effect on CaMKI activity at 5 µM peptide (CaMKIα): did not significantly inhibit | selectivity for CaMKII vs CaMKI (CaMKIα; ratio CaMKI IC50 / CaMKII IC50): ~360 fold

Ac-KRPPKLGQIGRSKRVVIEDD-NH2 [CN20]
effect of CN21 truncation on CaMKII inhibition (Fig. 1B) (CaMKIIα; CaMKII 20 nM, 40 µM syntide 2): not different between each other | pIC50 (CaMKIIα; [2]): ~7.00

Ac-KRPPKLGQIGRSKRVVIEDDR-NH2 [CN21, reference compound]
pIC50 (CaMKIIα): ~7.00 | pIC50 (CaMKII): ~6.00 | effect on CaMKI activity at 5 µM peptide (CaMKIα): did not significantly inhibit

H-KRPPKLGAIGRSKRVVIED-OH [Q8A]
IC50 (CaMKIIα): ~0.1 µM

H-KRPPKLGQIGRSKRVAIED-OH [V16A]
IC50 (CaMKIIα): ~0.1 µM

KAPPKLGQIGRSKRVVIED [R2A]
IC50 (CaMKIIα): < 0.3 µM

KRAPKLGQIGRSKRVVIED [P3A]
IC50 (CaMKIIα): < 0.1 µM | effect of individual mutation of CN19 on potency of CaMKII inhibition (CaMKIIα; syntide 2): significantly increased potency

KRPAKLGQIGRSKRVVIED [P4A]
IC50 (CaMKIIα): > 0.3 µM

KRPPALGQIGRSKRVVIED [K5A]
IC50 (CaMKIIα): < 0.3 µM

KRPPKAGQIGRSKRVVIED [L6A]
IC50 (CaMKIIα): > 0.3 µM

KRPPKLAQIGRSKRVVIED [G7A]
IC50 (CaMKIIα): < 0.3 µM

KRPPKLGQAGRSKRVVIED [I9A]
IC50 (CaMKIIα): > 0.3 µM

KRPPKLGQIARSKRVVIED [G10A]
IC50 (CaMKIIα): > 0.3 µM

KRPPKLGQIGASKRVVIED [R11A]
fold reduction of potency of CaMKII inhibition compared to CN19 (Ala scan) (CaMKIIα): more than 3 fold | IC50 (CaMKIIα): > 0.3 µM

KRPPKLGQIGRAKRVVIED [S12A]
fold reduction of potency of CaMKII inhibition compared to CN19 (Ala scan) (CaMKIIα): more than 3 fold | IC50 (CaMKIIα): > 0.3 µM

KRPPKLGQIGRSARVVIED [K13A]
IC50 (CaMKIIα): < 0.1 µM | effect of individual mutation of CN19 on potency of CaMKII inhibition (CaMKIIα; syntide 2): significantly increased potency

KRPPKLGQIGRSKAVVIED [R14A]
IC50 (CaMKIIα): < 0.1 µM | effect of individual mutation of CN19 on potency of CaMKII inhibition (CaMKIIα; syntide 2): significantly increased potency

KRPPKLGQIGRSKRAVIED [V15A]
IC50 (CaMKIIα): < 0.3 µM

KRPPKLGQIGRSKRVVAED [I17A]
IC50 (CaMKIIα): < 0.3 µM

KRPPKLGQIGRSKRVVIAD [E18A]
IC50 (CaMKIIα): < 0.3 µM

KRPPKLGQIGRSKRVVIEA [D19A]
IC50 (CaMKIIα): < 0.3 µM
